Columns and labels:
Format in all cases: cell-based
[1] = biological target: T1, Voltage-gated inwardly rectifying potassium channel KCNH2 (Homo sapiens, UniProt Q12809, Y652A); experiment: Binding affinity to human ERG Y652A tetrameric mutant expressed in HEK293 cells assessed as inhibition of tail current measured upon repolarization to -40 mV by patch clamp method
[2] = biological target: T2, Voltage-gated inwardly rectifying potassium channel KCNH2 (Homo sapiens, UniProt Q12809, F656A); experiment: Binding affinity to human ERG F656A tetrameric mutant expressed in HEK293 cells assessed as inhibition of tail current measured upon repolarization to -120 mV by patch clamp method
T2 sequence (Q12809 whole entry F656A): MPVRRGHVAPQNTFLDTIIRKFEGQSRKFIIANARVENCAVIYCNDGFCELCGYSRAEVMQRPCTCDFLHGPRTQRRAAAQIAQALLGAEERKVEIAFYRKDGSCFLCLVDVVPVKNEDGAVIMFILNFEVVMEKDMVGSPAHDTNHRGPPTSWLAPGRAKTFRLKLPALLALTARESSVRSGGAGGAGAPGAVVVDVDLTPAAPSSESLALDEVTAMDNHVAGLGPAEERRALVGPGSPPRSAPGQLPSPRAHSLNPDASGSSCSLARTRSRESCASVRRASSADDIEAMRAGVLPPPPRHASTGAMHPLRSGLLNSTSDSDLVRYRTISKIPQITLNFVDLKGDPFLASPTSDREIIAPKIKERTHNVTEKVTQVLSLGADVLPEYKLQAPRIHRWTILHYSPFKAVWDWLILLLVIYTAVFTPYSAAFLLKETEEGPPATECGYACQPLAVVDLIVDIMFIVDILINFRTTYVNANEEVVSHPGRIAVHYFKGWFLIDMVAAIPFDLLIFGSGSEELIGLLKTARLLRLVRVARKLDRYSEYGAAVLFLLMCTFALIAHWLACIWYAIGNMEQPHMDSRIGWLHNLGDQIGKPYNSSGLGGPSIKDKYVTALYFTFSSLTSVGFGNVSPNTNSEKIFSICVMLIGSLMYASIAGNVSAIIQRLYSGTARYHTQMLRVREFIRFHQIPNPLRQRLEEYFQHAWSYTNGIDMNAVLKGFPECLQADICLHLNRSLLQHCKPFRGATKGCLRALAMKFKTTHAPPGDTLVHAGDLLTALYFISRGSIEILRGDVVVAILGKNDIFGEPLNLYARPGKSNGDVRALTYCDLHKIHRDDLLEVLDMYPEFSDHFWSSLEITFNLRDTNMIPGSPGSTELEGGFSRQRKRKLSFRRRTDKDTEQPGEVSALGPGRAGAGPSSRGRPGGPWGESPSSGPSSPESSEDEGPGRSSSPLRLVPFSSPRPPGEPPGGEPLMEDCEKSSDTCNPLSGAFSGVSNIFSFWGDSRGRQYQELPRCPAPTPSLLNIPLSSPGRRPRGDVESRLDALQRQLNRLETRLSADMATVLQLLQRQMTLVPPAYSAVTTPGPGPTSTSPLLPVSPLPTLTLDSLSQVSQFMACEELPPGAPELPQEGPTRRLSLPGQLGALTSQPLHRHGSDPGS

[3] = biological target: Voltage-gated inwardly rectifying potassium channel KCNH2 (Homo sapiens, UniProt Q12809); experiment: Binding affinity to wild type human ERG expressed in HEK293 cells assessed as inhibition of tail current measured upon repolarization to -40 mV by patch clamp method
Sequence of Voltage-gated inwardly rectifying potassium channel KCNH2 (Homo sapiens, UniProt Q12809) (Q12809 whole entry): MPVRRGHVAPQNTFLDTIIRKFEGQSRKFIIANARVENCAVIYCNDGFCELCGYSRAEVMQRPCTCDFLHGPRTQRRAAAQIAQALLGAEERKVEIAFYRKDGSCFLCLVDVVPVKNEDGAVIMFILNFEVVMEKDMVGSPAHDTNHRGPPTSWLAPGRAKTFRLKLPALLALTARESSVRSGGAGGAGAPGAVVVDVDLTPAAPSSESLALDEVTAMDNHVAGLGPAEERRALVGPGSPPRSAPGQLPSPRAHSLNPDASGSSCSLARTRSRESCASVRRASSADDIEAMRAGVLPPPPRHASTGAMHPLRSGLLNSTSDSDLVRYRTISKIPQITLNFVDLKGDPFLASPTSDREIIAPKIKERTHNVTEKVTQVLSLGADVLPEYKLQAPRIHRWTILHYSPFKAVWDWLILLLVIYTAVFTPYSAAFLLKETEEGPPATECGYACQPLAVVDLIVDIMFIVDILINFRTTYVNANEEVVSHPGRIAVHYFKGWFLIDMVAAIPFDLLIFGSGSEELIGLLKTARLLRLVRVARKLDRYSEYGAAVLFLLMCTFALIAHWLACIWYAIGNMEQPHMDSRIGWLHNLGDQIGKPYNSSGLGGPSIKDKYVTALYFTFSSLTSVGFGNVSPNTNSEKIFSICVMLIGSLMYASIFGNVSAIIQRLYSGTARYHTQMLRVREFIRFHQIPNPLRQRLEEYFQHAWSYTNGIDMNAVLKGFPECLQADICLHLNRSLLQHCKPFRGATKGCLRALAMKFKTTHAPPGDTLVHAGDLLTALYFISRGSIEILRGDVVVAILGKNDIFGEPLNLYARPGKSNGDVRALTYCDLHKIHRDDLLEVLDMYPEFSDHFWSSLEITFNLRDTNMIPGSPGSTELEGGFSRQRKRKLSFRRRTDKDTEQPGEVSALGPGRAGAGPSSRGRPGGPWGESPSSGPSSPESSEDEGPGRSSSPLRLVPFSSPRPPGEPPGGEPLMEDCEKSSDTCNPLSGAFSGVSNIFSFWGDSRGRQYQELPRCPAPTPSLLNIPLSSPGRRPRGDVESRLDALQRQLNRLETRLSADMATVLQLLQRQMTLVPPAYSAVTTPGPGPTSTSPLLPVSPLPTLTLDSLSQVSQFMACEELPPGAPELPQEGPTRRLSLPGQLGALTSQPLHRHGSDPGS

[4] = biological target: T1, Voltage-gated inwardly rectifying potassium channel KCNH2; experiment: Binding affinity to human ERG Y652A tandem dimeric mutant expressed in HEK293 cells assessed as inhibition of tail current measured upon repolarization to -40 mV by patch clamp method
[5] = biological target: Voltage-gated inwardly rectifying potassium channel KCNH2 (Homo sapiens, UniProt Q12809, S624A); experiment: Binding affinity to human ERG S624A tetrameric mutant expressed in HEK293 cells assessed as inhibition of tail current measured upon repolarization to -40 mV by patch clamp method
Sequence of Voltage-gated inwardly rectifying potassium channel KCNH2 (Homo sapiens, UniProt Q12809, S624A) (Q12809 whole entry S624A): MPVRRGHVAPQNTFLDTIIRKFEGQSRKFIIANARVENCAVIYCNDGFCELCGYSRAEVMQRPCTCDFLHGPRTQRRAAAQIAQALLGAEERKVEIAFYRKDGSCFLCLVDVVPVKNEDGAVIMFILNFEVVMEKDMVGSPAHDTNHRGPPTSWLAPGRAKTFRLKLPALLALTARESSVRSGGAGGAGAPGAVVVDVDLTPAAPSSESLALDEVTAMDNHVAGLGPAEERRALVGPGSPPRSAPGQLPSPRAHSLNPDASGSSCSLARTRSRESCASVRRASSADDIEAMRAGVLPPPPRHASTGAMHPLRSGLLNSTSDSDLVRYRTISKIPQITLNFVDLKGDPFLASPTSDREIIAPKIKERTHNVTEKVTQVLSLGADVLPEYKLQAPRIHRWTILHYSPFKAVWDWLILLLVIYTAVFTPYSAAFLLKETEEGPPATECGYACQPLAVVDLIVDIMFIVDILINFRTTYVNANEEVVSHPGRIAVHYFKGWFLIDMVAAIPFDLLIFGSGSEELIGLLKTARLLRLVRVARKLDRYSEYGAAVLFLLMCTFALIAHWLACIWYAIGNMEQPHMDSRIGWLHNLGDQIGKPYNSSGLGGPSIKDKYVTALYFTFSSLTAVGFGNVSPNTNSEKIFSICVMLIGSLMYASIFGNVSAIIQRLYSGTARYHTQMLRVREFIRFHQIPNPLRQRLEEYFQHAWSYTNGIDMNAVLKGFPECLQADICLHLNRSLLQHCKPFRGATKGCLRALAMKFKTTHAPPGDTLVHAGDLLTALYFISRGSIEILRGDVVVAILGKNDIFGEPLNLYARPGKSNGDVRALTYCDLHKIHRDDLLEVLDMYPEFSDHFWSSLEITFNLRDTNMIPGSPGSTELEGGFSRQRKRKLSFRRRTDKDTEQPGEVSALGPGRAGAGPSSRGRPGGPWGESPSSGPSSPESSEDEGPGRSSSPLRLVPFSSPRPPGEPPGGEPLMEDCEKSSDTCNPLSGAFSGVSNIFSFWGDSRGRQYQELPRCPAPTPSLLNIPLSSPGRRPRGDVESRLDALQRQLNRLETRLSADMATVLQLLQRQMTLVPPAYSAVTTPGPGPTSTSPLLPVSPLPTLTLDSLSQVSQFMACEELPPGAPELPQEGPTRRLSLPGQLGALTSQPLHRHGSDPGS

[6] = biological target: T2, Voltage-gated inwardly rectifying potassium channel KCNH2; experiment: Binding affinity to human ERG F656A tandem dimeric mutant expressed in HEK293 cells assessed as inhibition of tail current measured upon repolarization to -120 mV by patch clamp method

T1 sequence (Q12809 whole entry Y652A): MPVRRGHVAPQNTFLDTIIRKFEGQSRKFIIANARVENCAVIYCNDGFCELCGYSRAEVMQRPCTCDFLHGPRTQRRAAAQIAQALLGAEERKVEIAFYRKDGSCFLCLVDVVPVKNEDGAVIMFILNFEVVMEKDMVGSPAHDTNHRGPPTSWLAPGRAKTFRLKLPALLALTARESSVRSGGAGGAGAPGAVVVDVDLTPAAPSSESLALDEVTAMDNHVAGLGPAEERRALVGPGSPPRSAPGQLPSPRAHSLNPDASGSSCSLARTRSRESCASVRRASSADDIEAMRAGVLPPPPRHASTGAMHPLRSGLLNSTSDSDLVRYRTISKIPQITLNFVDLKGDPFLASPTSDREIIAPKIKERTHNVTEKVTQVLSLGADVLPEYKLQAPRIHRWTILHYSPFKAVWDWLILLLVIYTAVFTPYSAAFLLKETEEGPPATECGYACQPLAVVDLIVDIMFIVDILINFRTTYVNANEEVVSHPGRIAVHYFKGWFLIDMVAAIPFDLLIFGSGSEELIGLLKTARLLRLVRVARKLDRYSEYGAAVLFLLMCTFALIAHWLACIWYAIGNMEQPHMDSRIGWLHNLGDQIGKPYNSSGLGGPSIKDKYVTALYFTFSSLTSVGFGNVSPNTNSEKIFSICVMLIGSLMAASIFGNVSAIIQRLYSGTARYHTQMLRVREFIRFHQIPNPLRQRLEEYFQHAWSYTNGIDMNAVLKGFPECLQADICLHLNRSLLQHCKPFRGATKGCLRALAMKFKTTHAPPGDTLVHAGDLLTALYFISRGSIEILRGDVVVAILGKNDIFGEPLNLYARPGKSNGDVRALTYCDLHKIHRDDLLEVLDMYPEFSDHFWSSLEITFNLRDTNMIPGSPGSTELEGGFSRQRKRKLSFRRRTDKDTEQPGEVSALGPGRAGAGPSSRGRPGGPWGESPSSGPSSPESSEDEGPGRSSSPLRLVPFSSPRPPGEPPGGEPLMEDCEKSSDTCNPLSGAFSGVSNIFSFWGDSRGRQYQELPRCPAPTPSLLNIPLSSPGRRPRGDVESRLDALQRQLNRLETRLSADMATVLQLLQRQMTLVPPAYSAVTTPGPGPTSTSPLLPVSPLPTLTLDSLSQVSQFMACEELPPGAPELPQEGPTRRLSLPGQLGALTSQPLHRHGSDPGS

Q: `C[C@@H]1CN(c2c(F)c(N)c3c(=O)c(C(=O)O)cn(C4CC4)c3c2F)C[C@H](C)N1` [SPARFLOXACIN] was tested. Which IC50 [1] did it give?
A: > 250 µM

Q: What about the IC50 [2] of the same molecule?
A: > 250 µM

Q: What about the IC50 [3] of the same molecule?
A: 21.7 µM

Q: What about the IC50 [4] of the same molecule?
A: 128 µM

Q: And the IC50 [5]?
A: 46.9 µM

Q: And the IC50 [6]?
A: 33.6 µM
